Experimental data reported in ChEMBL document CHEMBL1208750, “Synthesis, larvicidal activity, and SAR studies of new benzoylphenylureas containing oxime ether and oxime ester group” (2010).
Converted amounts (≈) assume the structure as drawn.

system: Aedes aegypti; test: Larvicidal activity against mosquito larvae at 0.01 mg/L; format: functional

| Compound | Activity |
| --- | --- |
| O=C(NC(=O)c1c(F)cccc1F)Nc1ccc(/C=N/Oc2ccccc2)cc1 | 100% |
| O=C(NC(=O)c1c(F)cccc1F)Nc1ccc(CO/N=C(/c2ccc(Cl)cc2)C2CC2)cc1 [FLUCYCLOXURON] | 0% |

system: Aedes aegypti; test: Larvicidal activity against mosquito larvae at 0.0025 mg/L; format: functional

| Compound | Activity |
| --- | --- |
| O=C(NC(=O)c1c(F)cccc1F)Nc1ccc(/C=N/Oc2ccc(Cl)cc2)cc1 | 100% |
| O=C(NC(=O)c1c(F)cccc1F)Nc1ccc(/C=N/Oc2ccccc2)cc1 | 10% |
| CC(C)O/N=C/c1ccc(NC(=O)NC(=O)c2c(F)cccc2F)cc1 | 15% |

system: Mythimna separata; test: Larvicidal activity against Oriental armyworm at 10 mg/L; format: functional

| Compound | Activity |
| --- | --- |
| Cc1cccc(O/N=C/c2ccc(NC(=O)NC(=O)c3c(F)cccc3F)cc2)c1 | 10% |
| O=C(NC(=O)c1c(F)cccc1F)Nc1ccc(/C=N/Oc2ccc(Cl)cc2)cc1 | 100% |
| O=C(NC(=O)c1c(F)cccc1F)Nc1ccc(/C=N/Oc2ccccc2)cc1 | 20% |
| O=C(NC(=O)c1c(F)cccc1F)Nc1ccc(CO/N=C(/c2ccc(Cl)cc2)C2CC2)cc1 [FLUCYCLOXURON] | 95% |

system: Mythimna separata; test: Larvicidal activity against Oriental armyworm at 5 mg/L; format: functional

| Compound | Activity |
| --- | --- |
| Cc1cccc(O/N=C/c2ccc(NC(=O)NC(=O)c3c(F)cccc3F)cc2)c1 | 0% |
| O=C(NC(=O)c1c(F)cccc1F)Nc1ccc(/C=N/Oc2ccc(Cl)cc2)cc1 | 100% |
| O=C(NC(=O)c1c(F)cccc1F)Nc1ccc(/C=N/Oc2ccccc2)cc1 | 0% |
| O=C(NC(=O)c1c(F)cccc1F)Nc1ccc(CO/N=C(/c2ccc(Cl)cc2)C2CC2)cc1 [FLUCYCLOXURON] | 90% |

system: Mythimna separata; test: Larvicidal activity against Oriental armyworm at 2.5 mg/L; format: functional

| Compound | Activity |
| --- | --- |
| O=C(NC(=O)c1c(F)cccc1F)Nc1ccc(/C=N/Oc2ccc(Cl)cc2)cc1 | 80% |
| CC(C)O/N=C/c1ccc(NC(=O)NC(=O)c2c(F)cccc2F)cc1 | 100% |
| O=C(NC(=O)c1c(F)cccc1F)Nc1ccc(CO/N=C(/c2ccc(Cl)cc2)C2CC2)cc1 [FLUCYCLOXURON] | 50% |

system: Mythimna separata; test: Larvicidal activity against Oriental armyworm at 1 mg/L; format: functional

| Compound | Activity |
| --- | --- |
| O=C(NC(=O)c1c(F)cccc1F)Nc1ccc(/C=N/Oc2ccc(Cl)cc2)cc1 | 0% |
| CC(C)O/N=C/c1ccc(NC(=O)NC(=O)c2c(F)cccc2F)cc1 | 100% |
| O=C(NC(=O)c1c(F)cccc1F)Nc1ccc(CO/N=C(/c2ccc(Cl)cc2)C2CC2)cc1 [FLUCYCLOXURON] | 10% |

system: Mythimna separata; test: Larvicidal activity against Oriental armyworm at 0.5 mg/L; format: functional

| Compound | Activity |
| --- | --- |
| CC(C)O/N=C/c1ccc(NC(=O)NC(=O)c2c(F)cccc2F)cc1 | 50% |
| O=C(NC(=O)c1c(F)cccc1F)Nc1ccc(CO/N=C(/c2ccc(Cl)cc2)C2CC2)cc1 [FLUCYCLOXURON] | 0% |

system: Mythimna separata; test: Larvicidal activity against Oriental armyworm at 50 mg/L; format: functional

| Compound | Activity |
| --- | --- |
| Cc1cccc(O/N=C/c2ccc(NC(=O)NC(=O)c3c(F)cccc3F)cc2)c1 | 50% |

system: Mythimna separata; test: Larvicidal activity against Oriental armyworm at 25 mg/L; format: functional

| Compound | Activity |
| --- | --- |
| Cc1cccc(O/N=C/c2ccc(NC(=O)NC(=O)c3c(F)cccc3F)cc2)c1 | 30% |
| O=C(NC(=O)c1c(F)cccc1F)Nc1ccc(/C=N/Oc2ccccc2)cc1 | 40% |

system: Mythimna separata; test: Larvicidal activity against Oriental armyworm at 0.25 mg/L; format: functional

| Compound | Activity |
| --- | --- |
| CC(C)O/N=C/c1ccc(NC(=O)NC(=O)c2c(F)cccc2F)cc1 | 0% |

system: Mythimna separata; test: Larvicidal activity against Oriental armyworm at 200 mg/L; format: functional

| Compound | Activity |
| --- | --- |
| Cc1cccc(O/N=C/c2ccc(NC(=O)NC(=O)c3c(F)cccc3F)cc2)c1 | 100% |
| O=C(NC(=O)c1c(F)cccc1F)Nc1ccc(/C=N/Oc2ccccc2)cc1 | 100% |

system: Mythimna separata; test: Larvicidal activity against Oriental armyworm at 100 mg/L; format: functional

| Compound | Activity |
| --- | --- |
| Cc1cccc(O/N=C/c2ccc(NC(=O)NC(=O)c3c(F)cccc3F)cc2)c1 | 90% |
| O=C(NC(=O)c1c(F)cccc1F)Nc1ccc(/C=N/Oc2ccccc2)cc1 | 100% |

system: Aedes aegypti; test: Larvicidal activity against mosquito larvae at 0.5 mg/L; format: functional

| Compound | Activity |
| --- | --- |
| Cc1cccc(O/N=C/c2ccc(NC(=O)NC(=O)c3c(F)cccc3F)cc2)c1 | 90% |

system: Aedes aegypti; test: Larvicidal activity against mosquito larvae at 0.25 mg/L; format: functional

| Compound | Activity |
| --- | --- |
| Cc1cccc(O/N=C/c2ccc(NC(=O)NC(=O)c3c(F)cccc3F)cc2)c1 | 60% |

system: Aedes aegypti; test: Larvicidal activity against mosquito larvae at 0.1 mg/L; format: functional

| Compound | Activity |
| --- | --- |
| O=C(NC(=O)c1c(F)cccc1F)Nc1ccc(CO/N=C(/c2ccc(Cl)cc2)C2CC2)cc1 [FLUCYCLOXURON] | 100% |

system: Aedes aegypti; test: Larvicidal activity against mosquito larvae at 0.05 mg/L; format: functional

| Compound | Activity |
| --- | --- |
| O=C(NC(=O)c1c(F)cccc1F)Nc1ccc(CO/N=C(/c2ccc(Cl)cc2)C2CC2)cc1 [FLUCYCLOXURON] | 100% |

system: Aedes aegypti; test: Larvicidal activity against mosquito larvae at 0.025 mg/L; format: functional

| Compound | Activity |
| --- | --- |
| O=C(NC(=O)c1c(F)cccc1F)Nc1ccc(/C=N/Oc2ccccc2)cc1 | 100% |
| O=C(NC(=O)c1c(F)cccc1F)Nc1ccc(CO/N=C(/c2ccc(Cl)cc2)C2CC2)cc1 [FLUCYCLOXURON] | 15% |

system: Aedes aegypti; test: Larvicidal activity against mosquito larvae at 0.005 mg/L; format: functional

| Compound | Activity |
| --- | --- |
| O=C(NC(=O)c1c(F)cccc1F)Nc1ccc(/C=N/Oc2ccccc2)cc1 | 20% |
| CC(C)O/N=C/c1ccc(NC(=O)NC(=O)c2c(F)cccc2F)cc1 | 75% |

system: Aedes aegypti; test: Larvicidal activity against mosquito larvae at 0.001 mg/L; format: functional

| Compound | Activity |
| --- | --- |
| O=C(NC(=O)c1c(F)cccc1F)Nc1ccc(/C=N/Oc2ccc(Cl)cc2)cc1 | 100% |
| CC(C)O/N=C/c1ccc(NC(=O)NC(=O)c2c(F)cccc2F)cc1 | 0% |

system: Aedes aegypti; test: Larvicidal activity against mosquito larvae at 0.00025 mg/L; format: functional

| Compound | Activity |
| --- | --- |
| O=C(NC(=O)c1c(F)cccc1F)Nc1ccc(/C=N/Oc2ccc(Cl)cc2)cc1 | 20% |

system: Spodoptera exigua; test: Larvicidal activity against beet armyworm; format: functional

| Compound | LC50 |
| --- | --- |
| O=C(NC(=O)c1c(F)cccc1F)Nc1ccc(CO/N=C(/c2ccc(Cl)cc2)C2CC2)cc1 [FLUCYCLOXURON] | 102 µg/mL (≈ 210 µM) |

system: Plutella xylostella; test: Larvicidal activity against diamondback moth; format: functional

| Compound | LC50 |
| --- | --- |
| O=C(NC(=O)c1c(F)cccc1F)Nc1ccc(CO/N=C(/c2ccc(Cl)cc2)C2CC2)cc1 [FLUCYCLOXURON] | 72.9 µg/mL (≈ 151 µM) |

system: Ostrinia nubilalis; test: Larvicidal activity against corn Borer; format: functional

| Compound | LC50 |
| --- | --- |
| O=C(NC(=O)c1c(F)cccc1F)Nc1ccc(CO/N=C(/c2ccc(Cl)cc2)C2CC2)cc1 [FLUCYCLOXURON] | 9.25 µg/mL (≈ 19.1 µM) |
